Measured values as given in ChEMBL document CHEMBL5724914, “Linking interpersonal differences in gut microbiota composition and drug biotransformation activity” (2024).

How the values were obtained:
[1] = The drug is tested on WLS-086 corresponding to human gut metagenome with ENA study accession number: PRJEB37062 and ENA sample accession number: ERS12561752 for biotransformation under anaerobic condition. The drug concentrations were measured over 9 timepoints collected between 0 and 24 hours of incubation by liquid-chromatography-coupled mass spectrometry (LC–MS); conditions: 2 µM
[2] = human gut metagenome, 24 h, 2 µM
[3] = human gut metagenome, 24 h, 2 µM; remark: listed apart in the source
[4] = human gut metagenome, 24 h, 2 µM; remark: listed apart in the source
[5] = The drug is tested on Z-016 corresponding to mouse gut metagenome with ENA study accession number: PRJEB37062 and ENA sample accession number: ERS12561815 for biotransformation under anaerobic condition. The drug concentrations were measured over 9 timepoints collected between 0 and 24 hours of incubation by liquid-chromatography-coupled mass spectrometry (LC–MS); conditions: 2 µM
[6] = The drug is tested on WLS-370 corresponding to human gut metagenome with ENA study accession number: PRJEB37062 and ENA sample accession number: ERS12561793 for biotransformation under anaerobic condition. The drug concentrations were measured over 9 timepoints collected between 0 and 24 hours of incubation by liquid-chromatography-coupled mass spectrometry (LC–MS); conditions: 2 µM
[7] = The drug is tested on Z-023 corresponding to metagenome with ENA study accession number: PRJEB37062 and ENA sample accession number: ERS12561822 for biotransformation under anaerobic condition. The drug concentrations were measured over 9 timepoints collected between 0 and 24 hours of incubation by liquid-chromatography-coupled mass spectrometry (LC–MS); conditions: 2 µM
[8] = human gut metagenome, 24 h, 2 µM; remark: listed apart in the source
[9] = The drug is tested on WLS-006 corresponding to human gut metagenome with ENA study accession number: PRJEB37062 and ENA sample accession number: ERS12561741 for biotransformation under anaerobic condition. The drug concentrations were measured over 9 timepoints collected between 0 and 24 hours of incubation by liquid-chromatography-coupled mass spectrometry (LC–MS); conditions: 2 µM
[10] = The drug is tested on Z-009 corresponding to pig gut metagenome with ENA study accession number: PRJEB37062 and ENA sample accession number: ERS12561809 for biotransformation under anaerobic condition. The drug concentrations were measured over 9 timepoints collected between 0 and 24 hours of incubation by liquid-chromatography-coupled mass spectrometry (LC–MS); conditions: 2 µM
[11] = human gut metagenome, 24 h, 2 µM; remark: listed apart in the source
[12] = The drug is tested on WLS-077 corresponding to human gut metagenome with ENA study accession number: PRJEB37062 and ENA sample accession number: ERS12561750 for biotransformation under anaerobic condition. The drug concentrations were measured over 9 timepoints collected between 0 and 24 hours of incubation by liquid-chromatography-coupled mass spectrometry (LC–MS); conditions: 2 µM
[13] = human gut metagenome, 24 h, 2 µM; remark: listed apart in the source
[14] = The drug is tested on WLS-220 corresponding to human gut metagenome with ENA study accession number: PRJEB37062 and ENA sample accession number: ERS12561769 for biotransformation under anaerobic condition. The drug concentrations were measured over 9 timepoints collected between 0 and 24 hours of incubation by liquid-chromatography-coupled mass spectrometry (LC–MS); conditions: 2 µM
[15] = human gut metagenome, 24 h, 2 µM; remark: listed apart in the source
[16] = human gut metagenome, 24 h, 2 µM; remark: listed apart in the source
[17] = The drug is tested on Z-021 corresponding to metagenome with ENA study accession number: PRJEB37062 and ENA sample accession number: ERS12561820 for biotransformation under anaerobic condition. The drug concentrations were measured over 9 timepoints collected between 0 and 24 hours of incubation by liquid-chromatography-coupled mass spectrometry (LC–MS); conditions: 2 µM
[18] = The drug is tested on Z-008 corresponding to metagenome with ENA study accession number: PRJEB37062 and ENA sample accession number: ERS12561808 for biotransformation under anaerobic condition. The drug concentrations were measured over 9 timepoints collected between 0 and 24 hours of incubation by liquid-chromatography-coupled mass spectrometry (LC–MS); conditions: 2 µM
[19] = The drug is tested on WLS-170 corresponding to human gut metagenome with ENA study accession number: PRJEB37062 and ENA sample accession number: ERS12561762 for biotransformation under anaerobic condition. The drug concentrations were measured over 9 timepoints collected between 0 and 24 hours of incubation by liquid-chromatography-coupled mass spectrometry (LC–MS); conditions: 2 µM
[20] = The drug is tested on WLS-082 corresponding to human gut metagenome with ENA study accession number: PRJEB37062 and ENA sample accession number: ERS12561751 for biotransformation under anaerobic condition. The drug concentrations were measured over 9 timepoints collected between 0 and 24 hours of incubation by liquid-chromatography-coupled mass spectrometry (LC–MS); conditions: 2 µM
Also: call rule not given here.

Compound | Bacterial Biotransformation [1] | Bacterial Biotransformation [2] | Bacterial Biotransformation [3] | Bacterial Biotransformation [4] | Bacterial Biotransformation [5] | Bacterial Biotransformation [6] | Bacterial Biotransformation [7] | Bacterial Biotransformation [8] | Bacterial Biotransformation [9] | Bacterial Biotransformation [10] | Bacterial Biotransformation [11] | Bacterial Biotransformation [12] | Bacterial Biotransformation [13] | Bacterial Biotransformation [14] | Bacterial Biotransformation [15] | Bacterial Biotransformation [16] | Bacterial Biotransformation [17] | Bacterial Biotransformation [18] | Bacterial Biotransformation [19] | Bacterial Biotransformation [20]
CCCc1nc2c(C)cc(-c3nc4ccccc4n3C)cc2n1Cc1ccc(-c2ccccc2C(=O)O)cc1 | Compound metabolized | Compound metabolized | Compound metabolized | Compound metabolized | Compound metabolized | Compound metabolized | Compound metabolized | Compound metabolized | Compound metabolized | Compound metabolized | Compound metabolized | Compound metabolized | Compound NOT metabolized | Compound metabolized | Compound metabolized | Compound metabolized | Compound metabolized | Compound metabolized | Compound metabolized | Compound metabolized
CCCCC(=O)N(Cc1ccc(-c2ccccc2-c2nnn[nH]2)cc1)[C@H](C(=O)O)C(C)C | Compound metabolized | Compound metabolized | Compound metabolized | Compound NOT metabolized | Compound NOT metabolized | Compound metabolized | Compound NOT metabolized | Compound metabolized | Compound metabolized | Compound NOT metabolized | Compound metabolized | Compound metabolized | Compound metabolized | Compound NOT metabolized | Compound metabolized | Compound metabolized | Compound metabolized | Compound NOT metabolized | Compound metabolized | Compound metabolized
CCC(COC(=O)c1cc(OC)c(OC)c(OC)c1)(c1ccccc1)N(C)C.O=C(O)/C=C\C(=O)O (centres undefined) | Compound NOT metabolized | Compound NOT metabolized | Compound metabolized | Compound NOT metabolized | Compound NOT metabolized | Compound NOT metabolized | Compound metabolized | Compound metabolized | Compound NOT metabolized | Compound metabolized | Compound metabolized | Compound NOT metabolized | Compound metabolized | Compound metabolized | Compound NOT metabolized | Compound NOT metabolized | Compound metabolized | Compound NOT metabolized | Compound metabolized | Compound metabolized
COc1ccc(CCN(C)CCCC(C#N)(c2ccc(OC)c(OC)c2)C(C)C)cc1OC (centres undefined) | Compound metabolized | Compound NOT metabolized | Compound metabolized | Compound NOT metabolized | Compound NOT metabolized | Compound metabolized | Compound metabolized | Compound metabolized | Compound NOT metabolized | Compound metabolized | Compound metabolized | Compound NOT metabolized | Compound metabolized | Compound metabolized | Compound metabolized | Compound NOT metabolized | Compound NOT metabolized | Compound NOT metabolized | Compound metabolized | Compound metabolized
CN1CC(=O)N2[C@H](c3ccc4c(c3)OCO4)c3[nH]c4ccccc4c3C[C@@H]2C1=O | Compound metabolized | Compound metabolized | Compound metabolized | Compound NOT metabolized | Compound metabolized | Compound metabolized | Compound metabolized | Compound metabolized | Compound metabolized | Compound metabolized | Compound metabolized | Compound metabolized | Compound metabolized | Compound metabolized | Compound metabolized | Compound metabolized | Compound metabolized | Compound NOT metabolized | Compound metabolized | Compound metabolized
NC(=O)N1c2ccccc2CC(=O)c2ccccc21 [OXCARBAZEPINE] | Compound NOT metabolized | Compound NOT metabolized | Compound NOT metabolized | Compound NOT metabolized | Compound NOT metabolized | Compound metabolized | Compound metabolized | Compound metabolized |  | Compound metabolized | Compound NOT metabolized | Compound NOT metabolized | Compound NOT metabolized | Compound NOT metabolized | Compound metabolized | Compound NOT metabolized | Compound NOT metabolized | Compound NOT metabolized | Compound NOT metabolized | Compound NOT metabolized
